# Measurements: patent US20240269145A1, “USE OF INDOLE COMPOUND AS INHIBITORS OF FERROPTOSIS” (MITOIMMUNE THERAPEUTICS INC., priority 2023, published 2024)
# Key:
# Assay type in all cases: cell-based
# PC-12 cells = experiment: Cytosolic iron ion accumulation (FerroOrange, images) after RSL3; conditions: PC-12, 0.3 μM RSL3, 1 hour; Example Compound 1 1 μM, DFO 10 or 100 μM
# Experimental: To confirm the inhibitory effect against cytosolic iron ion accumulation in adrenal medulla cells and cardiac cells, 3×10^5 PC-12 cells and H9C2 cells were each dispensed into a 35 mm confocal dish and cultured for 18 to 36 hours. Each well was treated with the Example Compound 1, which was diluted so that the final concentration became 1 μM, and with DFO, which was diluted so that the final concentration became 10 µM and 100 μM, and culture was performed for 20 to 30 minutes. Afterwards, the PC-12 cells and H9C2 cells were each treated with RSL3 and erastin so that their final concentration became 0.3 µM and 1 μM, respectively, and cultured for 1 hour and 7 hours. To confirm the inhibitory effect against cytosolic iron ion accumulation, FerroOrange [DOJINDO; F374] was used. According to the manufacturer's experimental method, FerroOrange was diluted in the cell culture medium so that the final concentration became 1 μM, and the cells were treated therewith. […] The cells fluorescently stained with FerroOrange were observed using a fluorescence microscope [Carl Zeiss; Axio Observer 7] to investigate the change in fluorescence (excitation/absorption 580 nm/543 nm) compared to the control group (RSL3 and erastin untreated group).
# MLE-12 cells [1] = experiment: Mitochondrial ROS (MitoSOX) after RSL3; conditions: MLE-12, 1 μM RSL3, 2 hours
# Experimental: To confirm the protective effect against mitochondrial reactive oxygen species in lung epithelial cells, 2×10^5 MLE-12 cells were dispensed into each well of a 12-well plate and cultured for 18 to 24 hours. Each well was treated with Example Compound 1 and ferrostatin-1, which were diluted so that their final concentration became 0.01, 0.1, 1, and 10 μM, and culture was performed for 15 minutes. Afterwards, the cells were treated so that the final concentration of RSL3 became 1 μM, and cultured for 2 hours. To confirm the inhibitory effect against mitochondrial reactive oxygen species, MitoSOX™ mitochondrial superoxide indicators (mitochondrial oxidative stress indicator) (MitoSOX) [Invitrogen™; C6827] was used. According to the manufacturer's experimental method, MitoSOX was diluted in the cell culture medium so that the final concentration became 5 μM, and the cells were treated therewith and allowed to react for 30 minutes to perform fluorescent staining. The MLE-12 cells fluorescently stained with MitoSOX were detached from the 12-well plate using 0.25% Trypsin-EDTA and transferred to a microtube, and the fluorescence (excitation/absorption ˜396 nm/610 nm) was measured using BD FACSLyric™ to calculate the rate of change compared to the control group (RSL3 untreated group).
# MLE-12 cells [2] = experiment: Cytosolic iron ion accumulation (FerroOrange, flow cytometry) after RSL3; conditions: MLE-12, 1 μM RSL3, 8 hours
# Experimental: To confirm the inhibitory effect against cytosolic iron ion accumulation in lung epithelial cells, 2×10^5 MLE-12 cells were dispensed into each well of a 12-well plate and cultured for 18 to 24 hours. Each well was treated with Example Compound 1 and ferrostatin-1, which were diluted so that their final concentration became 0.01, 0.1, 1, and 10 μM, and culture was performed for 15 minutes. Afterwards, the cells were treated so that the final concentration of RSL3 became 1 μM, and cultured for 8 hours. To confirm the inhibitory effect against cytosolic iron ion accumulation, FerroOrange [DOJINDO; F374] was used. According to the manufacturer's experimental method, FerroOrange was diluted in the cell culture medium so that the final concentration became 1 μM, and the cells were treated therewith and allowed to react for 30 minutes to perform fluorescent staining. The MLE-12 cells fluorescently stained with FerroOrange were detached from the 12-well plate using 0.25% Trypsin-EDTA and transferred to a microtube, and the fluorescence (excitation/absorption 580 nm/543 nm) was measured using BD FACSLyric™ to calculate the rate of change compared to the control group (RSL3 untreated group).
# H9C2 cells = experiment: Cell death protection by real-time imaging after erastin; conditions: H9C2, erastin 1 μM, compound 0.1 μM, imaged every 3 hours for 24 hours
# Experimental: To confirm a cell death protection effect on cardiac cells through images, 2.5×10^5 H9C2 cells were dispensed into each confocal dish and cultured for 2 days. Each dish was treated with Example Compound 1 and ferrostatin-1, which were diluted to a final concentration of 0.1 μM, and culture was performed for 20 minutes. Afterwards, the cells were treated with erastin so that the final concentration became 1 μM, and images were taken using real-time imaging equipment [Nanolive; CX-A] every 3 hours for 24 hours to confirm changes in the H9C2 cells.
# MLE-12 cells [3] = experiment: Cytosolic lipid ROS (BODIPY 581/591 C11) after RSL3, Experimental Example 3-1; conditions: MLE-12, 1 μM RSL3, 2 hours; tested 0.01-10 μM
# Experimental: Experimental Example 3-1: To confirm the protective effect against cytosolic lipid reactive oxygen species in lung epithelial cells, 2×10^5 MLE-12 cells were dispensed into each well of a 12-well plate and cultured for 18 to 24 hours. Each well was treated with Example Compound 1 and ferrostatin-1, which were diluted so that their final concentration became 0.01, 0.1, 1, and 10 μM, and culture was performed for 15 minutes. Afterwards, the cells were treated so that the final concentration of RSL3 became 1 μM, and cultured for 2 hours. To confirm the inhibitory effect against cytosolic lipid reactive oxygen species, BODIPY™ 581/591 C11 (lipid peroxidation sensor) [Invitrogen™; D3861] was used. According to the manufacturer's experimental method, BODIPY™ 581/591 C11 was diluted in the cell culture medium so that the final concentration became 5 μM, and the cells were treated therewith and allowed to react for 30 minutes to perform fluorescent staining. The MLE-12 cells fluorescently stained with BODIPY™ 581/591 C11 were detached from the 12-well plate using 0.25% Trypsin-EDTA and transferred to a microtube, and the fluorescence (excitation/absorption 500 to 650 nm/510 to 665 nm) was measured using BD FACSLyric™ to calculate the rate of change compared to the control group.
SMILES,cytosolic iron ion accumulation (images) (PC-12 cells),concentration at which mitochondrial reactive oxygen species were significantly decreased (MLE-12 cells [1]) [µM],concentration at which cytosolic iron ion accumulation was significantly decreased (MLE-12 cells [2]) [µM],time for which cell death was inhibited (H9C2 cells),concentration at which cytosolic lipid reactive oxygen species were significantly decreased (MLE-12 cells [3]) [µM],time from which cell death was observed (H9C2 cells) [h]
"O=S1(=O)CCN(Cc2cc(NC3CCOCC3)c3[nH]c(-c4ccccc4)cc3c2)CC1 [Example 1, 5-[(1,1-dioxido-4-thiomorpholinyl)methyl]-2-phenyl-N-(tetrahydro-2H-pyran-4-yl)-1H-indole-7-amine]",decrease was confirmed,0.1,0.1,up to 24 hours,0.1,–
"CCOC(=O)c1ccc(NC2CCCCC2)c(N)c1 [Fer-1, ferrostatin-1, reference compound]",–,0.1,1,up to 18 hours,0.1,≥ 21
